The results in this text go back to patent US20220143024A1, “METHODS OF USING IMIPRIDONES” (Board of Regents, The University of Texas System, priority 2019, published 2022).

The test system of experiment [1] is ONC201-resistant (ONC-R) Z138 cells carrying D190A mutant ClpP. In words: Sensitivity of ONC201-resistant Z138 cells. To be noted: Annexin V assay; 72 hours.
Description: (§3) After a 72-h period of incubation at 37° C., 10 μL of Alamar Blue was added to the culture medium and the mixture was incubated for an additional 2 h at 37° C. Cytotoxicity was measured using spectrophotometry of fluorescence at excitation 560 nm & emission 590 nm (SpectraMax M3, Molecular Devices, San Jose, Calif.). […] Annexin V and PI were stained after 72 h incubation. Annexin V- and PI-negative cells were counted as live cells.
The target in experiment [2] is T1, human ClpP (recombinant WT ClpP) (Homo sapiens, UniProt Q16740).
T1 construct: SUMO fusion (pETSUMO2); made in house; host or cells: E. coli SG1146
T1 sequence (Q16740 57-277): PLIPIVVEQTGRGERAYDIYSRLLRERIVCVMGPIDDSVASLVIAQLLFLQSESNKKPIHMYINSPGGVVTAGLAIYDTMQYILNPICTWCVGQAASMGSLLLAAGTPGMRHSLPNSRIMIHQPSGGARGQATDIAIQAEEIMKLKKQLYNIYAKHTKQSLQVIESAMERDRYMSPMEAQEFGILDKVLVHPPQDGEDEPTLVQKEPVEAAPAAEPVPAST
In words: ClpP enzymatic assays with fluorogenic substrates (cell-free). The class given is biochemical. To be noted: for EC50: without ClpX. Here is the method:
(§1) Hill coefficient was determined using Origin7, Pharmacology—Dose-response curve with log (compound concentration) as the independent variable.

In the next experiment the target is T2, ClpP (Homo sapiens, UniProt Q16740).
T2 construct: SUMO fusion (pETSUMO2); made in house; host or cells: E. coli SG1146
T2 sequence (Q16740 57-277): as above
The experiment can be described thus: Gel-based α-casein degradation by ClpP. The class given is biochemical. The following applies: without ClpX; 3 h; SDS-PAGE.

The subject of experiment [3] is patient-derived xenograft AML cells (leukemia-initiating cells). The experiment can be described thus: Engraftment of ex vivo treated patient-derived xenograft AML cells. In kind it is in vivo. The following applies: cells treated ex vivo with 250 nM for 36 hours, injected into NSG mice; untreated 36 days; p<0.0001. Here is the method: (§2) Mice. For all the animal studies in the present study, the study protocols were approved by the Institutional Animal Care and Use Committee (IACUC) at the Princess Margaret Cancer Centre and MD Anderson Cancer Center. Two million Z138 cells transfected with the wild-type or D190A mutant CLPP-over-expressing vector and labeled with luciferase were injected to individual NSG mice (n=7 per treatment group, all female). After confirming engraftment measured by in vivo bioluminescence imaging on d 9 post-transplantation, ONC212 (50 mg/kg/d) or vehicle (water) is administered by oral gavage every other d until the mice got moribund. Tumor burden measured by luminescence was followed weekly until day 31. Independently, two million Z138 cells transfected with tetracycline-inducible Y118A mutant ClpP were labeled with luciferase and injected to individual NSG mice (n=10 per treatment group, all male). After confirming engraftment measured by in vivo bioluminescence imaging on day 5 post-transplantation, the mice were treated with or without tetracycline (2 mg/mL) in drinking water until moribund. One million OCI-AML2 cells were injected to individual SCID mice (n=10 per treatment group, all male). […]. Engraftment experiments using patient-derived xenograft AML cells were performed as previously reported (Ishizawa et al., 2016). […] The mice in each group were monitored for survival.
In general terms: In xenograft studies the graft and the host belong to different species.

In experiment [4] the test system is primary AML patient samples. In words: Annexin V assay in primary AML samples. The following applies: 72 hours; incl. high-risk cytogenetics and molecular mutations.
Description: Bulk AML cells from AML patients and peripheral blood stem cells from healthy G-CSF-treated stem cell donors were isolated by Ficoll density centrifugation and apheresis, respectively. Isolated cells were maintained in IMDM supplemented with 10% FBS, or Myelocult H5100 (Stemcell Technologies, Vancouver, BC), supplemented with 100 ng/mL SCF, 10 ng/mL FLT3-L, 20 ng/mL IL-7, 10 ng/mL IL-3, 20 ng/mL IL-6, 20 ng/mL G-CSF, 20 ng/mL GM-CSF. Cells were supplemented with 100 μg/ml penicillin, and 100 U/ml streptomycin, at 37° C. and 5% CO2 in humidified atmosphere.
Experiment [5] relates to CLPP+/+ T-REx HEK293 cells. The experiment can be described thus: Alamar blue viability, CLPP+/+ T-REx HEK293. To be noted: CLPP+/+ (wild type) T-REx HEK293, 72 h. (In general: Alamar Blue is a resazurin reagent that responds to reducing activity.)
Description: as §3
In experiment [6] the test system is Z138 cells with WT ClpP overexpression. The experiment can be described thus: Z138 xenograft, WT ClpP overexpression. In kind it is in vivo, mice. The following applies: WT ClpP group. The procedure: as §2
The test system of experiment [7] is CLPP−/− T-REx HEK293 cells. In words: Alamar blue viability, CLPP−/− T-REx HEK293. The following applies: 72 h.
Description: as §3
The subject of experiment [8] is Z138 cells with D190A ClpP overexpression. The experiment can be described thus: Z138 xenograft, D190A ClpP overexpression. In kind it is in vivo, mice. Here is the method:
as §2

In experiment [9] the test system is OCI-AML2, OCI-AML3, TEX, Z138, HCT-116, HeLa, OC316 and SUM159 cells. In words: Growth and viability of leukemia, lymphoma and solid tumor cell lines. The following applies: tested cell lines; 72-hour exposure.
Description: as §3
The target of a further experiment is T3, recombinant D190A ClpP (Homo sapiens, UniProt Q16740, D190A).
T3 construct: SUMO fusion (pETSUMO2); made in house; host or cells: E. coli SG1146
T3 sequence (Q16740 57-277 D190A): as the sequence (Q16740 57-277) above, with D134A counted along it
The experiment can be described thus: ClpP enzymatic assays, D190A ClpP. The class given is biochemical. To be noted: peptide (AC-WLA-AMC) or protein (FITC-casein) substrates. The procedure:
as §1

For experiment [10], the system named is ClpP interactors (SDHA, SDHB, NDUFA12) in OCI-AML3 cells. The experiment can be described thus: Immunoblot of respiratory chain complex subunits, OCI-AML3. In kind it is cell-based. To be noted: 24 hours, dose dependent. Here is the method: Cells were lysed at a density of 1×10^6/50 μL (for AML cells) or 1×10^6/100 μL (for HCT116 cells) in protein lysis buffer (0.25 M Tris-HCl, 2% sodium dodecylsulfate, 4% β-mercaptoethanol, 10% glycerol, 0.02% bromophenol blue). Protein lysates for Oxphos cocktail antibodies were incubated for 30 min at room temperature, otherwise, at 95° C. for 5 min for denaturing (antibodies used are listed below). Immunoblot analysis was performed as reported previously (Ishizawa et al., 2016). Briefly, an equal amount of protein lysate was loaded onto a 10-12% SDS-PAGE gel (Bio-Rad), and quantitated using the Odyssey imaging system (LI-COR Biotechnology, Lincoln, Nebr.). Antibodies used: total OXPHOS rodent WB antibody cocktail, anti-SDHA, anti-SDHB, anti-NDUFA12, anti-ClpP, anti-ATF4, anti-eIF2α, anti-phospho-eIF2α (S51), anti-ClpP, anti-CQCRC2, anti-CS, anti-NDUFB8, anti-β-actin, and anti-GAPDH.
For orientation: A western blot detects proteins with antibodies after separation by electrophoresis.

Experiment [11] addresses endogenous ClpP in OCI-AML2 cells (Homo sapiens, UniProt Q16740). The following applies: 30 min, at concentrations associated with activation in enzymatic assays.
Experiment [12] has as its system Z138 cells with tetracycline-inducible mutant ClpP (Y118A). The experiment can be described thus: Z138 xenograft with tetracycline-inducible Y118A mutant ClpP. In kind it is in vivo. The following applies: tetracycline 2 mg/mL in drinking water induces Y118A ClpP; untreated 40 days; p<0.0001; NSG mice. The procedure: as §2
The next experiment has as its system OCI-AML2 cells. The experiment can be described thus: Alamar blue viability assay, OCI-AML2. The class given is cell-based. To be noted: 72-hour exposure, read-out: IC50, growth and viability. Here is the method:
[…]. After a 72-h period of incubation at 37° C., 10 μL of Alamar Blue was added to the culture medium and the mixture was incubated for an additional 2 h at 37° C. Cytotoxicity was measured using spectrophotometry of fluorescence at excitation 560 nm & emission 590 nm (SpectraMax M3, Molecular Devices, San Jose, Calif.). For apoptosis analysis, annexin V and PI binding assays were performed to assess apoptosis as described previously (Ishizawa et al., 2016). […]. Annexin V and PI were stained after 72 h incubation. Annexin V- and PI-negative cells were counted as live cells.

Where [13] appears, read: substrate FITC-casein, read-out: EC50, ClpP cleavage of FITC-casein.

Where two headings read alike, the source gives them in different places.

Sequence of endogenous ClpP in OCI-AML2 cells (Q16740 57-277): as the sequence (Q16740 57-277) above

As for `COc1cccc2c1C(=O)c1c(O)c3c(c(O)c1C2=O)C[C@@](O)(C(=O)CO)C[C@@H]3O[C@H]1C[C@H](N)[C@H](O)[C@H](C)O1` [Adriamycin], in [1], the “sensitivity of ONC-R Z138 cells” value is listed as “retained similar sensitivity”.
Take `O=C1C2=C(CCN(Cc3ccccc3)C2)N2CCN=C2N1Cc1ccc(C(F)(F)F)cc1` [ONC212]: the “sensitivity of ONC-R Z138 cells” value in [1] is “cross-resistant”. In experiment [2] (FITC-casein data, positive cooperativity), the Hill coefficient is 4.98±0.47. Moreover, the mode of activation result in [2] (pre-incubation of ClpP with compound (0-60 min) did not increase activation) is recorded as “reversible (non-covalent)”. Besides, the EC50 in experiment [2] (read-out: EC50, ClpP cleavage of FAPHMALVPC (Clptide), substrate FAPHMALVPC (Clptide), read-out: EC50, ClpP cleavage of […] (Clptide)) turned out to be 3370 nM; in [2] (substrate AC-WLA-AMC, read-out: EC50, ClpP cleavage of AC-WLA-AMC), 180 nM; in [2] (substrate Ac-Phe-hArg-Leu-ACC, read-out: EC50, ClpP cleavage of Ac-Phe-hArg-Leu-ACC) it was 370 nM; in experiment [2] (setting [13]) it was 460 nM. The “degradation of α-casein by ClpP” value at ClpP is “activated ClpP and induced cleavage of α-casein”. Moreover, the median survival in [3] was 82 days; in [6] (vehicle 49 days, p=0.008), 55 days; in experiment [8] (D190A mutant group, vehicle 53 days, p=0.40) it was 54 days. The “apoptosis in primary AML patient samples” value in experiment [4] was “induced apoptosis”. In addition, the growth and viability result was “reduced the growth and viability” in experiment [5]; “resistant” in experiment [7]. Also, the “tumor burden (luciferase, IVIS imaging)” value was “significantly reduced” in [6] (50 mg/kg every other day, oral gavage, NSG mice) and “no discernable anti-tumor activity” in experiment [8] (D190A ClpP group, 50 mg/kg every other day, oral gavage, NSG mice). Besides, the “IC50 values, growth and viability” value in experiment [9] is “nanomolar range”. Also, the “activation of proteolytic activity of D190A ClpP” value at recombinant D190A ClpP was “could not activate”. Further, the “level of identified ClpP interactors” value in [10] is “reduced the level”. Also, the “binding to endogenous ClpP in cells” value in [11] is on record as “bound endogenous ClpP”.
`CC[C@]1(O)C[C@H]2CN(CCc3c([nH]c4ccccc34)[C@@](C(=O)OC)(c3cc4c(cc3OC)N(C=O)[C@H]3[C@@](O)(C(=O)OC)[C@H](OC(C)=O)[C@]5(CC)C=CCN6CC[C@]43[C@@H]65)C2)C1` [Vincristine]: in [1], the “sensitivity of ONC-R Z138 cells” value is listed as “retained similar sensitivity”.
Consider `CN(C)[C@@H]1C(O)=C(C(N)=O)C(=O)[C@@]2(O)C(O)=C3C(=O)c4c(O)cccc4[C@@](C)(O)[C@H]3C[C@@H]12` [tetracycline], for which the median survival in experiment [12] worked out at 48 days.
In the case of Acyldepsipeptide 1 [ADEP1], the “potency as ClpP activator (comparison)” value in experiment [2] (ADEP1 versus ONC201 and ONC212) is given as “less potent”. For the same compound, the “cleavage of non-ClpP substrate MCA-Pro-Leu-Gly-Pro-D-Lys (DNP)-OH” value in experiment [2] (after activating ClpP) is “not cleaved”. Besides, in experiment [2] (setting [13]), the EC50 turned out to be 21300 nM. Besides, the IC50 in the experiment on OCI-AML2 cells is 50000 nM.

As usually defined, the Hill coefficient is the slope factor of the fitted curve. The EC50 is the concentration needed to bring the measured effect to its halfway point. Broadly, the IC50 is the midpoint of a concentration-inhibition curve.
